Experimental data reported in patent US11780845B2 (Relay Therapeutics, Inc., priority 2019, dated 2023).

Key:
SNU16 cells = assay: SNU16 Cancer Cell Line Proliferation Assay; type: cell-based; conditions: Homo sapiens; SNU-16 cells
Summary of the method: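 SNU16 cells were seeded, held 24 h at 37 degrees, then dosed with an 11-point 3-fold dilution series prepared from a 10 mM DMSO stock. After 96 h incubation, viability was read by CellTiter Glo luminescence.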

FGFR2 = FGFR2 (Homo sapiens (Human), UniProt P21802); assay: FGFR2 Biochemical Caliper Assay
Chain of FGFR2 (P21802 22-821): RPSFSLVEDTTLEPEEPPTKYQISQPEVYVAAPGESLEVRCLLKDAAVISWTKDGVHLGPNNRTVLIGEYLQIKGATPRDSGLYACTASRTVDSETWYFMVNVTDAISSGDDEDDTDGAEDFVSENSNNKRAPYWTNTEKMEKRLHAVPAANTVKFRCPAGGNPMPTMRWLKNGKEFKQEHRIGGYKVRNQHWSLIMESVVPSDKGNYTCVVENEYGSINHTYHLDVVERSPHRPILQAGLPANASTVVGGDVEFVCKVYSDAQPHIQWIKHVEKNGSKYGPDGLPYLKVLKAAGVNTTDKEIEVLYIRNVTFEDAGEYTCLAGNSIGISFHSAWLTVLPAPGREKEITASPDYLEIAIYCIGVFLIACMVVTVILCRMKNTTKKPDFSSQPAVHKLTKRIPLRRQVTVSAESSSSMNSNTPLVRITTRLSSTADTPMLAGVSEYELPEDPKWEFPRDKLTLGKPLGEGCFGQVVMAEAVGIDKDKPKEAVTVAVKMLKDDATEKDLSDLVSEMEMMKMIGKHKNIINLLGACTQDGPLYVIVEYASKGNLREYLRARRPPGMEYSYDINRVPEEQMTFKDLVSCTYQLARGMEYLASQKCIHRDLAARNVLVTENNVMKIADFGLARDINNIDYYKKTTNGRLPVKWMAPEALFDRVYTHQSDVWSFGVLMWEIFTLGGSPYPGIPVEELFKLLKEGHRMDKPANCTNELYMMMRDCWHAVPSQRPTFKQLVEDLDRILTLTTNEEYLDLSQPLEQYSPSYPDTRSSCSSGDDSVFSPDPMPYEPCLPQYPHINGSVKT
Procedure: Compounds of the present invention were also tested in a FGFR2 Biochemical Caliper Assay. Compounds were prepared in 10 mM DMSO solution and serially diluted into 11 concentrations by 3-fold dilution. […] 5 uL of ATP solution (100 uM) was added to start the reaction and the plate was incubated for 90 minutes, then 70 uL of stopping buffer (0.5M EDTA) was added to terminate the reaction. Each well was analyzed using EZ reader.

SMILES | IC50 (SNU16 cells) [µM] | IC50 (FGFR2) [µM]
C=CC(=O)N1CCC(c2c(-c3ccc(Oc4ncccn4)cc3)c3c(N)ncnc3n2C2CCOCC2)C1 (stereo not shown) [Example 704] | 0.1 to 0.25 | 0.25 to 1
C=CC(=O)N1CCC(c2c(-c3ccc(Oc4ncccn4)cc3)c3c(N)ncnc3n2CC)C1 (stereo not shown) [Example 705] | ≤ 0.1 | 0.1 to 0.25
C=CC(=O)N1CCC(c2c(-c3ccc(Oc4ccc(Cl)cn4)cc3)c3c(N)ncnc3n2C)C1 (stereo not shown) [Example 706] | ≤ 0.1 | < 0.1
C=CC(=O)N1CCC(c2c(-c3ccc(Oc4ncccn4)cc3)c3c(N)ncnc3n2CCN(C)C)C1 (stereo not shown) [Example 707] | 1 to 100 | 1 to 100
C=CC(=O)N1CCC(c2[nH]c3ncnc(N)c3c2-c2ccc(Oc3ncccn3)cc2)C1 (stereo not shown) [Example 709] | ≤ 0.1 | < 0.1
C=CC(=O)N1CC[C@@H](c2[nH]c3ncnc(N)c3c2-c2ccc(Oc3ncccn3)cc2)C1 [Example 713] | ≤ 0.1 | < 0.1
C=CC(=O)N1CCC(c2c(-c3ccc(Oc4ncccn4)cc3)c3c(N)ncnc3n2C2CC(O)C2)C1 (stereo not shown) [Example 714] | ≤ 0.1 | < 0.1
C=CC(=O)N1CCC(c2c(-c3cnn(CCN(C)C)c3)c3c(N)ncnc3n2C)C1 (stereo not shown) [Example 715] | 1 to 100 | 1 to 100
C=CC(=O)N1CCC(c2c(-c3ccc(OC4CCCC4)cc3)c3c(N)ncnc3n2C)C1 (stereo not shown) [Example 716] | ≤ 0.1 | < 0.1
C=CC(=O)N1CCC(c2c(-c3ccc(OCCOC)cc3)c3c(N)ncnc3n2C)C1 (stereo not shown) [Example 717] | 0.25 to 1 | 1 to 100
C=CC(=O)N1CCC(c2c(-c3ccc(C(=O)N4CCC(F)(F)C4)cc3)c3c(N)ncnc3n2C)C1 (stereo not shown) [Example 718] | 0.25 to 1 | 0.25 to 1
C=CC(=O)N1CCC(c2c(-c3ccc(N4CCCC4)cc3)c3c(N)ncnc3n2C)C1 (stereo not shown) [Example 719] | ≤ 0.1 | < 0.1
C=CC(=O)N1CCC(c2c(-c3ccc(N(C)C(C)=O)cc3)c3c(N)ncnc3n2C)C1 (stereo not shown) [Example 720] | 1 to 100 | 1 to 100
C=CC(=O)N1CCC(c2c(-c3ccc(COC)cc3)c3c(N)ncnc3n2C)C1 (stereo not shown) [Example 721] | 0.25 to 1 | 0.25 to 1
C=CC(=O)N1CCC(c2c(-c3ccc(C(=O)N4CCOCC4)cc3)c3c(N)ncnc3n2C)C1 (stereo not shown) [Example 722] | 1 to 100 | 1 to 100
C=CC(=O)N1CCC(c2c(-c3cnn(CC(F)(F)F)c3)c3c(N)ncnc3n2C)C1 (stereo not shown) [Example 723] | 1 to 100 | 1 to 100
C=CC(=O)N1CCC(c2c(-c3ccc(CN4CC[C@@H](O)C4)cc3)c3c(N)ncnc3n2C)C1 (stereo partly shown) [Example 724] | 1 to 100 | 1 to 100
C=CC(=O)N1CCC(c2c(-c3ccc(C(=O)Nc4ccccn4)cc3)c3c(N)ncnc3n2C)C1 (stereo not shown) [Example 725] | 0.1 to 0.25 | < 0.1
C=CC(=O)N1CCC(c2c(-c3cnn(C4CCCC4)c3)c3c(N)ncnc3n2C)C1 (stereo not shown) [Example 726] | 1 to 100 | 1 to 100
C=CC(=O)N1CCC(c2c(-c3ccc(C(=O)N4CCC4)c(F)c3)c3c(N)ncnc3n2C)C1 (stereo not shown) [Example 727] | 1 to 100 | 1 to 100
C=CC(=O)N1CCC(c2c(-c3ccc(Oc4ncccn4)cc3)c3c(N)ncnc3n2CCN2CCOCC2)C1 (stereo not shown) [Example 728] | 1 to 100 | 1 to 100

SMILES | IC50 (SNU16 cells) [µM] | IC50 (FGFR2) [µM]
C=CC(=O)N1CCC(c2c(-c3ccc(COc4ccccc4)cc3)c3c(N)ncnc3n2C)C1 (stereo not shown) [Example 729] | 0.1 to 0.25 | 0.1 to 0.25
C=CC(=O)N1CC[C@H](c2[nH]c3ncnc(N)c3c2-c2ccc(Oc3ncccn3)cc2)C1 [Example 730] | 1 to 100 | 0.25 to 1
C=CC(=O)N1CCC(c2c(-c3ccc(C(=O)N4CCSC4)cc3)c3c(N)ncnc3n2C)C1 (stereo not shown) [Example 731] | 0.25 to 1 | 0.25 to 1
C=CC(=O)N1CCC(c2c(-c3cnn(CC4CCNCC4)c3)c3c(N)ncnc3n2C)C1 (stereo not shown) [Example 732] | 1 to 100 | 0.1 to 0.25
C=CC(=O)N1CCC(c2c(-c3ccc(OCC(F)(F)F)nc3)c3c(N)ncnc3n2C)C1 (stereo not shown) [Example 733] | 0.25 to 1 | 0.25 to 1
C=CC(=O)N1CCC(c2c(-c3ccc(OCC4CC4)cc3)c3c(N)ncnc3n2C)C1 (stereo not shown) [Example 734] | ≤ 0.1 | 0.1 to 0.25
C=CC(=O)N1CCC(c2c(-c3ccc(C(=O)N4CCCC4)cc3)c3c(N)ncnc3n2C)C1 (stereo not shown) [Example 735] | 0.25 to 1 | 0.25 to 1
C=CC(=O)N1CCC(c2c(-c3cnn(C4CCOC4)c3)c3c(N)ncnc3n2C)C1 (stereo not shown) [Example 736] | 1 to 100 | 1 to 100
C=CC(=O)N1CCC(c2c(-c3cnn(C(C)C)c3)c3c(N)ncnc3n2C)C1 (stereo not shown) [Example 737] | 1 to 100 | 1 to 100
C=CC(=O)N1CCC(c2c(-c3ccc(Oc4ncccn4)cc3)c3c(N)ncnc3n2CCN2CCN(C)CC2)C1 (stereo not shown) [Example 738] | 1 to 100 | 1 to 100
C=CC(=O)N1CCC(c2c(-c3ccc(Oc4ncc(Cl)cn4)cc3)c3c(N)ncnc3n2C)C1 (stereo not shown) [Example 739] | ≤ 0.1 | 0.1 to 0.25
C=CC(=O)N1CC[C@@H](c2c(-c3ccc(Oc4ncccn4)cc3)c3c(N)ncnc3n2CCN2CCOCC2)C1 [Example 740] | 1 to 100 | 1 to 100
C=CC(=O)N1CC[C@H](c2c(-c3ccc(Oc4ncccn4)cc3)c3c(N)ncnc3n2CCN2CCOCC2)C1 [Example 741] | 1 to 100 | 1 to 100
C=CC(=O)N1CCC(c2c(-c3cnn(C4CCNCC4)c3)c3c(N)ncnc3n2C)C1 (stereo not shown) [Example 742] | 1 to 100 | 1 to 100
C=CC(=O)N1CCC(c2c(-c3cnn(C4CCN(C)CC4)c3)c3c(N)ncnc3n2C)C1 (stereo not shown) [Example 743] | 1 to 100 | 0.25 to 1
C=CC(=O)N1CCC(c2[nH]c3ncnc(N)c3c2-c2ccc(Oc3cccc(C)n3)cc2)C1 (stereo not shown) [Example 744] | ≤ 0.1 | < 0.1
C=CC(=O)N1CCC(c2c(-c3ccc(Oc4ccc(Cl)c(C)n4)cc3)c3c(N)ncnc3n2C)C1 (stereo not shown) [Example 745] | 1 to 100 | 1 to 100
C=CC(=O)N1CCC(c2[nH]c3ncnc(N)c3c2-c2ccc(C(=O)N3CCCC3)cc2)C1 (stereo not shown) [Example 746] | 0.25 to 1 | < 0.1
CC#CC(=O)N1CCC(c2c(-c3ccc(C(=O)N4CCCC4)cc3)c3c(N)ncnc3n2C)C1 (stereo not shown) [Example 747] | ≤ 0.1 | < 0.1
C=CC(=O)N1CCC(c2c(-c3ccc(OCc4ccccc4)cc3)c3c(N)ncnc3n2C)C1 (stereo not shown) [Example 748] | 0.25 to 1 | 0.1 to 0.25
C=CC(=O)N1CCC(c2c(-c3ccc(SC4CCCC4)cc3)c3c(N)ncnc3n2C)C1 (stereo not shown) [Example 749] | ≤ 0.1 | < 0.1

SMILES | IC50 (SNU16 cells) [µM] | IC50 (FGFR2) [µM]
C=CC(=O)N1CCC(c2c(-c3ccc(C(=O)N4CCCCC4)cc3)c3c(N)ncnc3n2C)C1 (stereo not shown) [Example 750] | ≤ 0.1 | < 0.1
C=CC(=O)N1CCC(c2c(-c3ccc(C4CCOCC4)cc3)c3c(N)ncnc3n2C)C1 (stereo not shown) [Example 751] | 0.1 to 0.25 | 0.25 to 1
C=CC(=O)N1CCC(c2c(-c3ccc(CN4CCC(C)(C)C4)cc3)c3c(N)ncnc3n2C)C1 (stereo not shown) [Example 753] | 1 to 100 | 1 to 100
C=CC(=O)N1CCC(c2c(-c3ccc(NC(=O)NC4CC4)cc3)c3c(N)ncnc3n2C)C1 (stereo not shown) [Example 755] | 1 to 100 | < 0.1
C=CC(=O)N1CCC(c2c(-c3ccc(OC4CC4)cc3)c3c(N)ncnc3n2C)C1 (stereo not shown) [Example 756] | ≤ 0.1 | 0.1 to 0.25
C=CC(=O)N1CCC(c2c(-c3csc(CN4CCOCC4)c3)c3c(N)ncnc3n2C)C1 (stereo not shown) [Example 757] | 1 to 100 | 1 to 100
C=CC(=O)N1CCC(c2c(-c3ccc(OC4CCC4)cc3)c3c(N)ncnc3n2C)C1 (stereo not shown) [Example 758] | ≤ 0.1 | < 0.1
C=CC(=O)N1CCC(c2c(-c3ccc(Oc4ccc(C(F)(F)F)cn4)cc3)c3c(N)ncnc3n2C)C1 (stereo not shown) [Example 759] | 0.25 to 1 | 0.25 to 1
C=CC(=O)N1CCC(c2c(-c3ccc(C(=O)c4ccccc4)cc3)c3c(N)ncnc3n2C)C1 (stereo not shown) [Example 760] | ≤ 0.1 | < 0.1
C=CC(=O)N1CCC(c2c(-c3ccc(C(=O)C4CC4)cc3)c3c(N)ncnc3n2C)C1 (stereo not shown) [Example 761] | 0.1 to 0.25 | 0.1 to 0.25
C=CC(=O)N1CCC(c2c(-c3ccc(C4CCC(=O)N4)cc3)c3c(N)ncnc3n2C)C1 (stereo not shown) [Example 762] | 1 to 100 | 1 to 100
C=CC(=O)N1CCC(c2c(-c3ccc(CN4CCCC4)cc3)c3c(N)ncnc3n2C)C1 (stereo not shown) [Example 763] | 0.25 to 1 | 0.25 to 1
C=CC(=O)N1CCC(c2c(-c3ccc(CC(=O)N(C)C)cc3)c3c(N)ncnc3n2C)C1 (stereo not shown) [Example 764] | 1 to 100 | 1 to 100
C=CC(=O)N1CCC(c2c(-c3ccc(-c4ncc[nH]4)cc3)c3c(N)ncnc3n2C)C1 (stereo not shown) [Example 765] | 1 to 100 | < 0.1
C=CC(=O)N1CCC(c2c(-c3ccc(-c4cnn(C)c4)cc3)c3c(N)ncnc3n2C)C1 (stereo not shown) [Example 766] | 0.25 to 1 | 0.25 to 1
C=CC(=O)N1CCC(c2c(-c3ccc(-c4noc(C)n4)cc3)c3c(N)ncnc3n2C)C1 (stereo not shown) [Example 767] | 0.1 to 0.25 | 0.25 to 1
C=CC(=O)N1CCC(c2c(-c3ccc(-c4ccno4)cc3)c3c(N)ncnc3n2C)C1 (stereo not shown) [Example 768] | 0.1 to 0.25 | 0.25 to 1
C=CC(=O)Nc1ccc(-c2[nH]c3ncnc(N)c3c2-c2ccc(Oc3cccc(C)n3)cc2)cc1 [Example 769] | ≤ 0.1 | < 0.1
C=CC(=O)N1CCC(c2c(-c3ccc(NC4CCCC4)cc3)c3c(N)ncnc3n2C)C1 (stereo not shown) [Example 771] | 1 to 100 | 1 to 100
C=CC(=O)N1CCC(c2c(-c3ccc(Cn4cccn4)cc3)c3c(N)ncnc3n2C)C1 (stereo not shown) [Example 772] | ≤ 0.1 | < 0.1
